Each structure is given as a SMILES string. Where a SMILES comes first, the peptide text is derived from it. [ ]: non-standard residue; d: D form. The star is where a group is joined. X1 = CCCCCCCCCCCCCCCCCC(=O)NCCCCCCN*; dBta = N[C@H](Cc1csc2ccccc12)C(=O)O; d3Pal = N[C@H](Cc1cccnc1)C(=O)O; d2Thi = N[C@H](Cc1cccs1)C(=O)O; NH(CH2)3Ph = c1ccc(CCCN*)cc1; dNle = CCCC[C@@H](N)C(=O)O A value given as a limit tells only on which side of the number the result lay.

The text below walks through data of patent publication US10385108B2, “Peptide analogs of alpha-melanocyte stimulating hormone” (Genzyme Corporation, priority 2008, dated 2019).

In the first test the target is MC1R (Homo sapiens, UniProt Q01726). The test can be described thus: Competitive binding with 125I-NDP-MSH, HEK293 membrane preparations, MC1R.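 Also: Read-out: receptor-bound radioligand retained by filtration and counted.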
Sequence of MC1R (Q01726 whole entry): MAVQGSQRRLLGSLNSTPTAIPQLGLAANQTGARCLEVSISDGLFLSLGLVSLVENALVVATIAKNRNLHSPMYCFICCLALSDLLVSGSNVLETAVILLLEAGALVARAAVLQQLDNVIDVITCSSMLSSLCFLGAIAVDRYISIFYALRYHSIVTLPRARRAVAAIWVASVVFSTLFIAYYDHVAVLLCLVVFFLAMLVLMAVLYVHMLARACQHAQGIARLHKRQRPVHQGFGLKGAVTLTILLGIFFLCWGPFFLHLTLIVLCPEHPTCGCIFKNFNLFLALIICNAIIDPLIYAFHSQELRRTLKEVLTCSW
Conditions: not given
As for `CC(C)[C@@H](N)C(=O)N1CCC[C@@H]1C(=O)N[C@H](CCCCN)C(=O)NCC(=O)N[C@H](Cc1c[nH]c2ccccc12)C(=O)N[C@H](CCCNC(=N)N)C(=O)N[C@H](Cc1ccccc1)C(=O)N[C@H](Cc1c[nH]cn1)C(=O)NCCCc1ccccc1` [compound 847, vpkGwrfh] (H-[dV][dP][dK]G[dW][dR][dF][dH]-{NH(CH2)3Ph}), the “affinity for MC1R compared with parent peptide (in words)” value was “no increase in the affinity”.

Still in this test, the particulars now being: Ki MC1R, competition with 125I-NDP-MSH.
The term Ki denotes a dissociation constant, usually derived from enzyme kinetics or from competition with a known ligand. Consider `CSCC[C@@H](NC(=O)[C@@H](CCC(=O)O)NC(=O)[C@@H](Cc1c[nH]cn1)NC(=O)[C@@H](Cc1ccccc1)NC(=O)[C@@H](CCCNC(=N)N)NC(=O)[C@@H](Cc1csc2ccccc12)NC(=O)CNC(=O)[C@@H](CCCCN)NC(=O)[C@H]1CCCN1C(=O)[C@H](NC(C)=O)C(C)C)C(=O)N[C@H](CO)C(=O)N[C@H](Cc1ccc(O)cc1)C(=O)N[C@H](CO)C(N)=O` [compound 859, vpkG(3-benzothienyl-D-Alanine)rfhemsys] (Ac-[dV][dP][dK]G[dBta][dR][dF][dH][dE][dM][dS][dY][dS]-NH2), for which the affinity corresponds to a Ki of 206 nM.

`CC(=O)N[C@@H](C(=O)N1CCC[C@@H]1C(=O)N[C@H](CCCCN)C(=O)NCC(=O)N[C@H](Cc1c[nH]c2ccccc12)C(=O)N[C@H](CCCNC(=N)N)C(=O)N[C@H](Cc1ccccc1)C(=O)N[C@H](Cc1c[nH]cn1)C(=O)N[C@H](CCC(=O)O)C(=O)N[C@H](CCCCN)C(=O)N[C@H](CO)C(=O)N[C@H](Cc1ccc(O)cc1)C(=O)N[C@H](CO)C(N)=O)C(C)C` [compound 879, vpkGwrfheksys] (Ac-[dV][dP][dK]G[dW][dR][dF][dH][dE][dK][dS][dY][dS]-NH2) yielded a Ki of 832 nM.

`CSCC[C@@](C)(NC(=O)[C@@H](CCC(=O)O)NC(=O)[C@@H](Cc1c[nH]cn1)NC(=O)[C@@H](Cc1ccccc1)NC(=O)[C@@H](CCCNC(=N)N)NC(=O)[C@@H](Cc1c[nH]c2ccccc12)NC(=O)CNC(=O)[C@@H](CCCCN)NC(=O)[C@H]1CCCN1C(=O)[C@H](NC(C)=O)C(C)C)C(=O)N[C@H](CO)C(=O)N[C@H](Cc1ccc(O)cc1)C(=O)N[C@H](CO)C(N)=O` [compound 877, vpkGwrfhe(α-methyl-D-Met)sys]: the Ki was determined as 282 nM.

Turning to `CCCCCCCCCCCCCCCCCC(=O)N[C@@H](Cc1c[nH]cn1)C(=O)N[C@H](Cc1ccccc1)C(=O)N[C@@H](CCCNC(=N)N)C(=O)N[C@@H](Cc1c[nH]c2ccccc12)C(N)=O` [compound 820, (Stearyl) HfRW], the affinity corresponds to a Ki of 1.3 nM.

For the molecule `CC(C)[C@@H](N)C(=O)N1CCC[C@@H]1C(=O)N[C@H](CCCCN)C(=O)NCC(=O)N[C@H](Cc1c[nH]c2ccccc12)C(=O)N[C@H](CCCNC(=N)N)C(=O)N[C@H](Cc1ccccc1)C(=O)N[C@H](Cc1c[nH]cn1)C(=O)NCCCc1ccccc1` [compound 847, vpkGwrfh] (H-[dV][dP][dK]G[dW][dR][dF][dH]-{NH(CH2)3Ph}), the Ki was determined as 104 ± 72 nM.

On to `CSCC[C@@H](NC(=O)[C@@H](C)NC(=O)[C@@H](Cc1c[nH]cn1)NC(=O)[C@@H](Cc1ccccc1)NC(=O)[C@@H](CCCNC(=N)N)NC(=O)[C@@H](Cc1c[nH]c2ccccc12)NC(=O)CNC(=O)[C@@H](CCCCN)NC(=O)[C@H]1CCCN1C(=O)[C@H](NC(C)=O)C(C)C)C(=O)N[C@H](CO)C(=O)N[C@H](Cc1ccc(O)cc1)C(=O)N[C@H](CO)C(N)=O` [compound 808, vpkGwrfhamsys] (Ac-[dV][dP][dK]G[dW][dR][dF][dH][dA][dM][dS][dY][dS]-NH2), for which the Ki came out at 2.5 nM. Against the preceding molecule, the Ki is about 42-fold lower.

Take `CSCC[C@@H](NC(=O)[C@@H](CCC(=O)O)NC(=O)[C@@H](Cc1c[nH]cn1)NC(=O)[C@@H](Cc1ccccc1)NC(=O)[C@@H](CCCNC(=N)N)NC(=O)[C@@H](Cc1ccccc1)NC(=O)CNC(=O)[C@@H](CCCCN)NC(=O)[C@H]1CCCN1C(=O)[C@H](NC(C)=O)C(C)C)C(=O)N[C@H](CO)C(=O)N[C@H](Cc1ccc(O)cc1)C(=O)N[C@H](CO)C(N)=O` [862-b, vpkGfrfhemsys] (Ac-[dV][dP][dK]G[dF][dR][dF][dH][dE][dM][dS][dY][dS]-NH2): the Ki is 128 nM.

On to `CSCC[C@@H](NC(=O)[C@@H](CCC(=O)O)NC(=O)[C@@H](Cc1c[nH]c2ccccc12)NC(=O)[C@@H](Cc1ccccc1)NC(=O)[C@@H](CCCNC(=N)N)NC(=O)[C@@H](Cc1c[nH]c2ccccc12)NC(=O)CNC(=O)[C@@H](CCCCN)NC(=O)[C@H]1CCCN1C(=O)[C@H](NC(C)=O)C(C)C)C(=O)N[C@H](CO)C(=O)N[C@H](Cc1ccc(O)cc1)C(=O)N[C@H](CO)C(N)=O` [compound 873, vpkGwrfwemsys] (Ac-[dV][dP][dK]G[dW][dR][dF][dW][dE][dM][dS][dY][dS]-NH2), for which the Ki stood at 1900 nM.

As to `COc1ccc2[nH]cc(C[C@@H](NC(=O)CNC(=O)[C@@H](CCCCN)NC(=O)[C@H]3CCCN3C(=O)[C@H](NC(C)=O)C(C)C)C(=O)N[C@H](CCCNC(=N)N)C(=O)N[C@H](Cc3ccccc3)C(=O)N[C@H](Cc3c[nH]cn3)C(=O)N[C@H](CCC(=O)O)C(=O)N[C@H](CCSC)C(=O)N[C@H](CO)C(=O)N[C@H](Cc3ccc(O)cc3)C(=O)N[C@H](CO)C(N)=O)c2c1` [compound 861, vpkG(5-methoxy-D-Trp)rfhemsys], the affinity, expressed as Ki, was 75 nM. Compared with the last molecule, the Ki is about 25-fold lower.

In turn, `CSCC[C@@H](NC(=O)[C@@H](CCC(=O)O)NC(=O)[C@@H](Cc1c[nH]cn1)NC(=O)[C@@H](Cc1ccccc1)NC(=O)[C@@H](Cc1c[nH]cn1)NC(=O)[C@@H](Cc1c[nH]c2ccccc12)NC(=O)CNC(=O)[C@@H](CCCCN)NC(=O)[C@H]1CCCN1C(=O)[C@H](NC(C)=O)C(C)C)C(=O)N[C@H](CO)C(=O)N[C@H](Cc1ccc(O)cc1)C(=O)N[C@H](CO)C(N)=O` [compound 865, vpkGwhfhemsys] (Ac-[dV][dP][dK]G[dW][dH][dF][dH][dE][dM][dS][dY][dS]-NH2) had a Ki of 2300 nM.

`CSCC[C@@H](NC(=O)[C@@H](CCC(=O)O)NC(=O)[C@@H](Cc1c[nH]cn1)NC(=O)[C@@H](Cc1ccccc1)NC(=O)[C@@H](CCCNC(=N)N)NC(=O)[C@@H](Cc1c[nH]c2ccccc12)NC(=O)CNC(=O)[C@@H](CCCN)NC(=O)[C@H]1CCCN1C(=O)[C@H](NC(C)=O)C(C)C)C(=O)N[C@H](CO)C(=O)N[C@H](Cc1ccc(O)cc1)C(=O)N[C@H](CO)C(N)=O` [compound 857, vp(D-Ornithine)Gwrfhemsys] gave an inhibitory constant (Ki) of 3 nM.

Consider `CCCC[C@@H](NC(=O)[C@H]1CCCN1C(=O)[C@H](NC(C)=O)C(C)C)C(=O)NCC(=O)N[C@H](Cc1c[nH]c2ccccc12)C(=O)N[C@H](CCCNC(=N)N)C(=O)N[C@H](Cc1ccccc1)C(=O)N[C@H](Cc1c[nH]cn1)C(=O)N[C@H](CCC(=O)O)C(=O)N[C@H](CCSC)C(=O)N[C@H](CO)C(=O)N[C@H](Cc1ccc(O)cc1)C(=O)N[C@H](CO)C(N)=O` [compound 858, vp(D-Norleucine)Gwrfhemsys] (Ac-[dV][dP][dNle]G[dW][dR][dF][dH][dE][dM][dS][dY][dS]-NH2), for which the affinity corresponds to a Ki of 18 nM.

`CSCC[C@@H](NC(=O)[C@@H](CC(=O)O)NC(=O)[C@@H](Cc1c[nH]cn1)NC(=O)[C@@H](Cc1ccccc1)NC(=O)[C@@H](CCCNC(=N)N)NC(=O)[C@@H](Cc1c[nH]c2ccccc12)NC(=O)CNC(=O)[C@@H](CCCCN)NC(=O)[C@H]1CCCN1C(=O)[C@H](NC(C)=O)C(C)C)C(=O)N[C@H](CO)C(=O)N[C@H](Cc1ccc(O)cc1)C(=O)N[C@H](CO)C(N)=O` [compound 875, vpkGwrfhdmsys] (Ac-[dV][dP][dK]G[dW][dR][dF][dH][dD][dM][dS][dY][dS]-NH2) gave an inhibitory constant (Ki) of 400 nM.

Regarding `CSCC[C@@H](NC(=O)[C@@H](CCC(=O)O)NC(=O)[C@@H](Cc1c[nH]cn1)NC(=O)[C@@H](Cc1ccc([N+](=O)[O-])cc1)NC(=O)[C@@H](CCCNC(=N)N)NC(=O)[C@@H](Cc1c[nH]c2ccccc12)NC(=O)CNC(=O)[C@@H](CCCCN)NC(=O)[C@H]1CCCN1C(=O)[C@H](NC(C)=O)C(C)C)C(=O)N[C@H](CO)C(=O)N[C@H](Cc1ccc(O)cc1)C(=O)N[C@H](CO)C(N)=O` [compound 871, vpkGwr(4-Nitro-D-Phe)hemsys], the Ki was 324 nM. The Ki values of the last two molecules are within 1.5-fold of each other.

`CSCC[C@@H](NC(=O)[C@@H](CCC(=O)O)NC(=O)[C@@H](Cc1c[nH]cn1)NC(=O)[C@@H](Cc1cccnc1)NC(=O)[C@@H](CCCNC(=N)N)NC(=O)[C@@H](Cc1c[nH]c2ccccc12)NC(=O)CNC(=O)[C@@H](CCCCN)NC(=O)[C@H]1CCCN1C(=O)[C@H](NC(C)=O)C(C)C)C(=O)N[C@H](CO)C(=O)N[C@H](Cc1ccc(O)cc1)C(=O)N[C@H](CO)C(N)=O` [compound 867, vpkGwr(3-pyridyl-D-Alanine)hemsys] (Ac-[dV][dP][dK]G[dW][dR][d3Pal][dH][dE][dM][dS][dY][dS]-NH2): the Ki amounted to 480 nM.

In the case of `CSCC[C@@H](NC(=O)[C@@H](CCC(=O)O)NC(=O)[C@@H](Cc1c[nH]cn1)NC(=O)[C@@H](Cc1cccs1)NC(=O)[C@@H](CCCNC(=N)N)NC(=O)[C@@H](Cc1c[nH]c2ccccc12)NC(=O)CNC(=O)[C@@H](CCCCN)NC(=O)[C@H]1CCCN1C(=O)[C@H](NC(C)=O)C(C)C)C(=O)N[C@H](CO)C(=O)N[C@H](Cc1ccc(O)cc1)C(=O)N[C@H](CO)C(N)=O` [compound 868, vpkGwr(2-thienyl-D-Alanine)hemsys] (Ac-[dV][dP][dK]G[dW][dR][d2Thi][dH][dE][dM][dS][dY][dS]-NH2), the Ki came to 5.4 nM. This Ki lies about 89-fold lower than the previous one.

For the molecule `CC(C)[C@@H](N)C(=O)N1CCC[C@@H]1C(=O)N[C@H](CCCCN)C(=O)NCC(=O)N[C@H](Cc1c[nH]c2ccccc12)C(=O)N[C@H](CCCNC(=N)N)C(=O)N[C@H](Cc1ccccc1)C(=O)N[C@H](Cc1c[nH]cn1)C(=O)O` [847int, vpkGwrfh] (H-[dV][dP][dK]G[dW][dR][dF][dH]-OH), the Ki worked out at 150 nM.

In the case of `CSCC[C@@H](NC(=O)[C@@H](CCC(=O)O)NC(=O)[C@@H](Cc1c[nH]cn1)NC(=O)[C@@H](Cc1ccccc1)NC(=O)[C@@H](CCCNC(=N)N)NC(=O)[C@@H](Cc1c[nH]c2ccc(O)cc12)NC(=O)CNC(=O)[C@@H](CCCCN)NC(=O)[C@H]1CCCN1C(=O)[C@H](NC(C)=O)C(C)C)C(=O)N[C@H](CO)C(=O)N[C@H](Cc1ccc(O)cc1)C(=O)N[C@H](CO)C(N)=O` [compound 860, vpkG(5-hydroxy-D-Trp)rfhemsys], the affinity corresponds to a Ki of 96 nM.

Staying with this test, now noted: relative to the unmodified tetrapeptide.
Take `CCCCCCCCCCCCCCCCCC(=O)N[C@@H](Cc1c[nH]cn1)C(=O)N[C@H](Cc1ccccc1)C(=O)N[C@@H](CCCNC(=N)N)C(=O)N[C@@H](Cc1c[nH]c2ccccc12)C(N)=O` [compound 820, (Stearyl) HfRW]: the “improvement of binding to MC1R by stearyl addition to the core tetrapeptide” value is on record as 80 fold.

With `CCCCCCCCCCCCCCCCCC(=O)NCCCCCCNC(=O)[C@@H](Cc1c[nH]cn1)NC(=O)[C@H](Cc1ccccc1)NC(=O)[C@@H](CCCNC(=N)N)NC(=O)[C@@H](Cc1c[nH]c2ccccc12)NC(C)=O` [compound 882, wrFh] (Ac-[dW][dR]F[dH]-X1), the “improvement of binding to MC1R by stearyl addition to the core tetrapeptide” value was > 250 fold.
